In US12558428B2, “Heterobifunctional compounds and their use in treating disease” (Halda Therapeutics OpCo, Inc., priority 2024, dated 2026):
Read-outs that look alike come from different tables or passages of the source.

Experiments:
Type in all cases: cell-based
[1] = system: T-Rex 293 cells lacking increased expression of estrogen receptor alpha protein; test: Cellular growth inhibition assay, T-Rex 293 cells, (−) doxycycline; settings: T-Rex 293 cells without doxycycline (lacking increased ERα expression), 72 hours, CellTiter-Glo, read-out: (−) Dox GI50
In short: (§1)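 Growth of a doxycycline-inducible ERα T-Rex 293 clone, induced or not with 3 ng/mL doxycycline, was followed for 72 h with test compound in hormone-depleted medium. CellTiter-Glo luminescence gave GI50.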

[2] = system: MCF7 cells (ATCC #HTB-22); test: Cellular growth inhibition assay, MCF7 cells purchased from ATCC; settings: Table 8-A, MCF7 cells purchased from ATCC, six days, CellTiter-Glo, read-out: GI50
In short: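 GI50 values come from a four-parameter fit of CellTiter-Glo 2.0 luminescence after six days of compound exposure at 37° C. Seeding density depended on the source: 225 cells/well for ECACC MCF7, 1,500 for ATCC. Medium was RPMI 1640 with 10% FBS and 0.2 U/ml insulin.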

[3] = system: T-Rex 293 cells having increased expression of estrogen receptor alpha protein; test: Cellular growth inhibition assay, T-Rex 293 cells, (+) doxycycline; settings: T-Rex 293 cells with doxycycline (increased ERα expression), 72 hours, CellTiter-Glo, read-out: (+) Dox GI50
In short: as §1

Compound	GI50 ([1]; T-REx-293, 72 h, Table 7-A)	GI50 ([2]; Homo sapiens, MCF7, 144 h)	GI50 ([3]; T-REx-293, 72 h, Table 7-A)	GI50 ([1]; T-REx-293, 72 h, Table 7-B)	GI50 ([3]; T-REx-293, 72 h, Table 7-B)	GI50 ([1]; Table 7-A)	GI50 [2]	GI50 ([3]; Table 7-A)
Cc1sc2c(c1C)C(c1ccc(N3CC4(CC(CN5CCN(c6ccc(C7=C(c8ccccc8Cl)CCCc8cc(C(=O)O)ccc87)c(F)c6)CC5)C4)C3)cc1)=N[C@@H](C)c1nnc(C)n1-2 [IV-58]	500 to 2500 nM	< 50 nM	< 50 nM					
Cc1sc2c(c1C)C(c1ccc(N3CC4(CC(CN5CCN(c6ccc(C7=C(c8ccccc8Cl)CCCc8cc(C(=O)O)ccc87)cc6)CC5)C4)C3)cc1)=N[C@@H](C)c1nnc(C)n1-2 [IV-59]	500 to 2500 nM	< 50 nM	< 50 nM					
Cc1sc2c(c1C)C(c1ccc(N3CCC(O)(CN4CCN(c5ccc(C6=C(c7ccccc7Cl)CCCc7cc(C(=O)O)ccc76)c(F)c5)CC4)CC3)cc1)=N[C@@H](Cc1ncco1)c1nnc(C)n1-2 [IV-60]	50 to 500 nM	< 50 nM	< 50 nM					
Cc1sc2c(c1C)C(c1ccc(N3CCC(O)(CN4CCN(c5ccc(C6=C(c7ccccc7Cl)CCCc7cc(C(=O)O)ccc76)cc5)CC4)CC3)c(Cl)c1)=N[C@@H](C)c1nnc(C)n1-2 [IV-61]	500 to 2500 nM	< 50 nM	< 50 nM					
Cc1sc2c(c1C)C(c1ccc(C3CN(CC4CC(CN5CC(c6ccc(C7=C(c8ccccc8)CCCc8cc(C(=O)O)ccc87)cc6)C5)C4)C3)cc1)=N[C@@H](C)c1nnc(C)n1-2 (stereo partly drawn) [IV-62]	500 to 2500 nM	< 50 nM	< 50 nM					
Cc1sc2c(c1C)C(c1ccc(N3CCC(O)(CN4CCN(c5ccc(C6=C(c7ccccc7)CCCc7cc(B(O)O)ccc76)cc5)CC4)CC3)cc1)=N[C@@H](C)c1nnc(C)n1-2 [IV-63]	500 to 2500 nM	< 50 nM	< 50 nM					
Cc1cc(C2=N[C@@H](C)c3nnc(C)n3-c3sc(C)c(C)c32)ccc1N1CC(CN2CCN(CC3CN(c4ccc(C5=C(c6ccc(Cl)cc6)CCCc6cc(C(=O)O)ccc65)cc4)C3)CC2)C1 [IV-64]	500 to 2500 nM	< 50 nM	50 to 500 nM					
COc1cc(N2CCN(CC3(O)CCN(c4ccc(C5=N[C@@H](C)c6nnc(C)n6-c6sc(C)c(C)c65)cc4)CC3)CC2)ccc1C1=C(c2ccccc2Cl)CCCc2cc(C(=O)O)ccc21 [IV-65]		50 to 500 nM		500 to 2500 nM	< 50 nM			
COc1ccc(-c2sc3cc(OC)ccc3c2C(=O)c2ccc(OCCN3CCC(CCCCOc4ccc(C5=N[C@@H](Cc6ncco6)c6nnc(C)n6-c6sc(C)c(C)c65)cc4)CC3)cc2)cc1 [V-1]	50 to 500 nM	50 to 500 nM	50 to 500 nM					
COc1ccc(-c2sc3cc(OC)ccc3c2C(=O)c2ccc(OCCN3CCC4(CC3)CC(Oc3ccc(C5=N[C@@H](Cc6ncco6)c6nnc(C)n6-c6sc(C)c(C)c65)cc3)C4)cc2)cc1 [V-2]						500 to 2500 nM	50 to 500 nM	50 to 500 nM
COc1ccc(-c2sc3cc(OC)ccc3c2C(=O)c2ccc(OCCN3CCC(CCOc4ccc(C5=N[C@@H](Cc6ncco6)c6nnc(C)n6-c6sc(C)c(C)c65)cc4)CC3)cc2)cc1 [V-3]	50 to 500 nM	50 to 500 nM	50 to 500 nM					
CC1=C(c2c(F)cc(F)cc2F)[C@@H](c2ccc(OCCN3CCCC4(CCN(c5ccc(C6=N[C@@H](C)c7nnc(C)n7-c7sc(C)c(C)c76)cc5)CC4)C3)cc2)Oc2ccc(O)cc21 [V-4]	500 to 2500 nM	50 to 500 nM	500 to 2500 nM					
CC1=C(c2c(F)cc(F)cc2F)[C@H](c2ccc(OCCN3CCCC4(CCN(c5ccc(C6=N[C@@H](C)c7nnc(C)n7-c7sc(C)c(C)c76)cc5)CC4)C3)cc2)Oc2ccc(O)cc21 [V-5]	500 to 2500 nM	50 to 500 nM	50 to 500 nM					
CC1=C(c2c(F)cc(F)cc2F)C(c2ccc(OCCN3CCCN(c4ccc(C5=N[C@@H](C)c6nnc(C)n6-c6sc(C)c(C)c65)cc4)CC3)cc2)Oc2ccc(O)cc21 (stereo partly drawn) [V-6]	500 to 2500 nM	50 to 500 nM	50 to 500 nM					
CC1=C(c2c(F)cc(F)cc2F)[C@H](c2ccc(OCCN3CCC[C@]4(CCN(c5ccc(C6=N[C@@H](C)c7nnc(C)n7-c7sc(C)c(C)c76)cc5)C4)C3)cc2)Oc2ccc(O)cc21 [V-7]	50 to 500 nM	50 to 500 nM	< 50 nM					
CC1=C(c2c(F)cc(F)cc2F)[C@H](c2ccc(OCCN3CCC[C@@]4(CCN(c5ccc(C6=N[C@@H](C)c7nnc(C)n7-c7sc(C)c(C)c76)cc5)C4)C3)cc2)Oc2ccc(O)cc21 [V-8]	500 to 2500 nM	50 to 500 nM	< 50 nM					
CC1=C(c2c(F)cc(F)cc2F)[C@@H](c2ccc(OCCN3CCC[C@]4(CCN(c5ccc(C6=N[C@@H](C)c7nnc(C)n7-c7sc(C)c(C)c76)cc5)C4)C3)cc2)Oc2ccc(O)cc21 [V-9]	500 to 2500 nM	50 to 500 nM	> 2500 nM					

Compound	GI50 ([1]; T-REx-293, 72 h, Table 7-A)	GI50 ([2]; Homo sapiens, MCF7, 144 h)	GI50 ([3]; T-REx-293, 72 h, Table 7-A)	GI50 ([1]; T-REx-293, 72 h, Table 7-B)	GI50 ([3]; T-REx-293, 72 h, Table 7-B)	GI50 ([1]; Table 7-A)	GI50 [2]	GI50 ([3]; Table 7-A)
CC1=C(c2c(F)cc(F)cc2F)[C@@H](c2ccc(OCCN3CCC[C@@]4(CCN(c5ccc(C6=N[C@@H](C)c7nnc(C)n7-c7sc(C)c(C)c76)cc5)C4)C3)cc2)Oc2ccc(O)cc21 [V-10]	500 to 2500 nM	500 to 2500 nM	500 to 2500 nM					
CC1=C(c2c(F)cc(F)cc2F)C(c2ccc(N3CCN(CC4CCN(c5ccc(C6=N[C@@H](C)c7nnc(C)n7-c7sc(C)c(C)c76)cc5)CC4)CC3)cc2)Oc2ccc(O)cc21 (stereo partly drawn) [V-11]	500 to 2500 nM	50 to 500 nM	50 to 500 nM					
CC1=C(c2c(F)cc(F)cc2F)[C@H](c2ccc(C3CCN(CC4CCN(c5ccc(C6=N[C@@H](C)c7nnc(C)n7-c7sc(C)c(C)c76)cc5)CC4)CC3)cc2)Oc2ccc(O)cc21 [V-12]	50 to 500 nM	50 to 500 nM	< 50 nM					
CC1=C(c2c(F)cc(F)cc2F)[C@@H](c2ccc(C3CCN(CC4CCN(c5ccc(C6=N[C@@H](C)c7nnc(C)n7-c7sc(C)c(C)c76)cc5)CC4)CC3)cc2)Oc2ccc(O)cc21 [V-13]	50 to 500 nM	50 to 500 nM	50 to 500 nM					
CC1=C(c2c(F)cc(F)cc2F)[C@@H](c2ccc(N3CCN(C(=O)C4CCN(c5ccc(C6=N[C@@H](C)c7nnc(C)n7-c7sc(C)c(C)c76)cc5)CC4)CC3)cc2)Oc2ccc(O)cc21 [V-14]	500 to 2500 nM	50 to 500 nM	50 to 500 nM					
CC1=C(c2c(F)cc(F)cc2F)[C@H](c2ccc(N3CCN(C(=O)C4CCN(c5ccc(C6=N[C@@H](C)c7nnc(C)n7-c7sc(C)c(C)c76)cc5)CC4)CC3)cc2)Oc2ccc(O)cc21 [V-15]	50 to 500 nM	50 to 500 nM	< 50 nM					
CC1=C(c2c(F)cc(F)cc2F)C(c2ccc(OCCN3CCC4(CC3)CCN(c3ccc(C5=N[C@@H](C)c6nnc(C)n6-c6sc(C)c(C)c65)cc3)C4)cc2)Oc2ccc(O)cc21 (stereo partly drawn) [V-16]	500 to 2500 nM	50 to 500 nM	500 to 2500 nM					
CC1=C(c2c(F)cc(F)cc2F)C(c2ccc(N3CCC4(CCCN(CCOc5ccc(C6=N[C@@H](C)c7nnc(C)n7-c7sc(C)c(C)c76)cc5)C4)C3)cc2)Oc2ccc(O)cc21 (stereo partly drawn) [V-17]	50 to 500 nM	50 to 500 nM	50 to 500 nM					
CC1=C(c2c(F)cc(F)cc2F)C(c2ccc(N3CCC4(CCN(C(=O)Cc5ccc(C6=N[C@@H](C)c7nnc(C)n7-c7sc(C)c(C)c76)cc5)C4)CC3)cc2)Oc2ccc(O)cc21 (stereo partly drawn) [V-18]	50 to 500 nM	50 to 500 nM	50 to 500 nM					
CC1=C(c2c(F)cc(F)cc2F)[C@H](c2ccc(N3CCC(CN4CCC5(CC4)CN(c4ccc(C6=N[C@@H](C)c7nnc(C)n7-c7sc(C)c(C)c76)cc4)C5)CC3)cc2)Oc2ccc(O)cc21 [V-19]	500 to 2500 nM	< 50 nM	< 50 nM					
CC1=C(c2c(F)cc(F)cc2F)[C@@H](c2ccc(N3CCC(CN4CCC5(CC4)CN(c4ccc(C6=N[C@@H](C)c7nnc(C)n7-c7sc(C)c(C)c76)cc4)C5)CC3)cc2)Oc2ccc(O)cc21 [V-20]	500 to 2500 nM	50 to 500 nM	< 50 nM					
CC1=C(c2c(F)cc(F)cc2F)C(c2ccc(N3CCN(CC4CN(c5ccc(C6=N[C@@H](C)c7nnc(C)n7-c7sc(C)c(C)c76)cc5)C4)CC3)cc2)Oc2ccc(O)cc21 (stereo partly drawn) [V-21]	50 to 500 nM	< 50 nM	< 50 nM					
CC1=C(c2c(F)cc(F)cc2F)[C@@H](c2ccc(N3CCN(CC4CCN(c5ccc(C6=N[C@@H](C)c7nnc(C)n7-c7sc(C)c(C)c76)cc5)CC4)CC3)cc2)Oc2ccc(O)cc21 [V-22]	500 to 2500 nM	50 to 500 nM	< 50 nM					
CC1=C(c2c(F)cc(F)cc2F)[C@H](c2ccc(N3CCN(CC4CCN(c5ccc(C6=N[C@@H](C)c7nnc(C)n7-c7sc(C)c(C)c76)cc5)CC4)CC3)cc2)Oc2ccc(O)cc21 [V-23]	500 to 2500 nM	50 to 500 nM	< 50 nM					
CC1=C(c2c(F)cc(F)cc2F)[C@H](c2ccc(N3CCN(CC4CCN(c5ccc(C6=N[C@H](C)c7nnc(C)n7-c7sc(C)c(C)c76)cc5)CC4)CC3)cc2)Oc2ccc(O)cc21 [V-24]	> 2500 nM	> 2500 nM	> 2500 nM					
CC1=C(c2c(F)cc(F)cc2F)[C@@H](c2ccc(N3CCN(CC4CCN(c5ccc(C6=N[C@H](C)c7nnc(C)n7-c7sc(C)c(C)c76)cc5)CC4)CC3)cc2)Oc2ccc(O)cc21 [V-25]	> 2500 nM	> 2500 nM	> 2500 nM					
